In PubChem BioAssay AID248 (DTP/NCI, 2004):
Values joined by “and” are separate entries in the source; they are usually repeats but may differ in a detail not shown here. Equal entries are not always repeated. Toxic doses and inconclusive results are not listed. No stated cut-off is given here; in the data, active means T/C of 150% or more; inactive means T/C below 125%. Square brackets hold non-standard residues; d marks the D form. Peptide text beside a SMILES is read from it. ξ: configuration not given here. ξV = CC(C)C(N)C(=O)O

Tested on: L1210 leukemia ip in BDF1 mice, survival T/C
Assay: NCI In Vivo Anticancer Drug Screen. Data for tumor model L1210 Leukemia (intraperitoneal) in B6D2F1 (BDF1) mice
Details: endpoint: mean survival time, higher = longer survival
Method in brief: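 Survival endpoint. Drug-treated group vs vehicle group, expressed as T divided by C. Tumor passaged by transplantation.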

[1] = dose: 100.0 mg/kg/injection, schedule: Q04DX003 (ip), vehicle: Klucel (hydroxypropylcellulose) (HPC)
[2] = dose: 200.0 mg/kg/injection, schedule: Q04DX003 (ip), vehicle: Klucel (hydroxypropylcellulose) (HPC)
[3] = dose: 400.0 mg/kg/injection, schedule: Q04DX003 (ip), vehicle: Klucel (hydroxypropylcellulose) (HPC)
[4] = dose: 100.0 mg/kg/injection, schedule: Q01DX001 (ip), vehicle: Klucel (hydroxypropylcellulose) (HPC)
[5] = dose: 200.0 mg/kg/injection, schedule: Q01DX001 (ip), vehicle: Klucel (hydroxypropylcellulose) (HPC)
[6] = dose: 400.0 mg/kg/injection, schedule: Q01DX001 (ip), vehicle: Klucel (hydroxypropylcellulose) (HPC)
[7] = dose: 100.0 mg/kg/injection, schedule: Q04DX003 (ip), vehicle: saline with Tween-80
[8] = dose: 100.0 mg/kg/injection, schedule: Q01DX009 (ip), vehicle: Klucel (hydroxypropylcellulose) (HPC)
[9] = dose: 200.0 mg/kg/injection, schedule: Q01DX009 (ip), vehicle: Klucel (hydroxypropylcellulose) (HPC)
[10] = dose: 400.0 mg/kg/injection, schedule: Q01DX009 (ip), vehicle: Klucel (hydroxypropylcellulose) (HPC)
[11] = dose: 100.0 mg/kg/injection, schedule: Q04DX003 (ip), vehicle: saline
[12] = dose: 200.0 mg/kg/injection, schedule: Q04DX003 (ip), vehicle: saline
[13] = dose: 400.0 mg/kg/injection, schedule: Q04DX003 (ip), vehicle: saline

Measured: T/C

CCOC(=O)CNC(=O)Nc1ccc(C(=O)OCC)cc1
inactive: dose: 100.0 mg/kg/injection, schedule: Q01DX009 (ip), vehicle: saline with Tween-80 98 % of control | dose: 200.0 mg/kg/injection, schedule: Q01DX009 (ip), vehicle: saline with Tween-80 92 % of control

Cc1ccc(C(=O)CC(=O)Nc2cc([N+](=O)[O-])ccc2OCCOc2ccc(C(C)(C)CC(C)(C)C)cc2)cc1
inactive: dose: 100.0 mg/kg/injection, schedule: Q01DX009 (ip), vehicle: saline sonified 100 % of control | [1] 112 % of control | dose: 200.0 mg/kg/injection, schedule: Q01DX009 (ip), vehicle: saline sonified 97 % of control | [2] 89 % of control | dose: 400.0 mg/kg/injection, schedule: Q01DX009 (ip), vehicle: saline sonified 87 % of control | [3] 94 % of control

CCS(=O)(=O)CS(=O)(=O)c1ccc(C)cc1
inactive: [4] 103 % of control | [5] 103 % of control | [6] 103 % of control

CCCCNC(=O)NS(=O)(=O)c1ccc(CCl)cc1
inactive: dose: 50.0 mg/kg/injection, schedule: Q04DX003 (ip), vehicle: Klucel (hydroxypropylcellulose) (HPC) 98 % of control | [1] 102 % of control | [2] 100 % of control

CCOc1ncc(N)c(OCC)n1
inactive: dose: 50.0 mg/kg/injection, schedule: Q01DX001 (ip), vehicle: saline 112 % of control | dose: 100.0 mg/kg/injection, schedule: Q01DX001 (ip), vehicle: saline 97 % of control | dose: 200.0 mg/kg/injection, schedule: Q01DX001 (ip), vehicle: saline 103 % of control | dose: 400.0 mg/kg/injection, schedule: Q01DX001 (ip), vehicle: saline 100 % of control

CCCCCCCCCCCCCCCCCCOc1ccccc1
inactive: dose: 100.0 mg/kg/injection, schedule: Q01DX009 (sc), vehicle: olive oil, sesame oil, peanut oil 94 % of control | dose: 100.0 mg/kg/injection, schedule: Q04DX003 (sc), vehicle: olive oil, sesame oil, peanut oil 95 % of control | dose: 200.0 mg/kg/injection, schedule: Q01DX009 (sc), vehicle: olive oil, sesame oil, peanut oil 99 % of control | dose: 200.0 mg/kg/injection, schedule: Q04DX003 (sc), vehicle: olive oil, sesame oil, peanut oil 101 % of control | dose: 400.0 mg/kg/injection, schedule: Q01DX009 (sc), vehicle: olive oil, sesame oil, peanut oil 94 % of control | dose: 400.0 mg/kg/injection, schedule: Q04DX003 (sc), vehicle: olive oil, sesame oil, peanut oil 108 % of control

O=C(NCCCl)NC1(C(=O)O)CCCC1
inactive: [4] 98 % of control | [5] 107 % of control | [6] 98 % of control

CC(N)COCc1ccccc1 (stereo not drawn)
inactive: dose: 25.0 mg/kg/injection, schedule: Q01DX009 (ip), vehicle: saline 97 % of control | dose: 25.0 mg/kg/injection, schedule: Q04DX003 (ip), vehicle: saline with Tween-80 97 % of control | dose: 50.0 mg/kg/injection, schedule: Q01DX009 (ip), vehicle: saline 97 % of control | dose: 50.0 mg/kg/injection, schedule: Q04DX003 (ip), vehicle: saline with Tween-80 119 % of control | [7] 97 % of control and 88 % of control

CCCc1nc2ccccc2c(=O)n1/N=C/c1ccc(Cl)cc1
inactive: [8] 98 % of control | [9] 88 % of control | [10] 93 % of control

C=CC[n+]1ccccc1/C=C/c1ccc(OC)c(OC)c1
inactive: dose: 3.12 mg/kg/injection, schedule: Q01DX009 (ip), vehicle: Klucel (hydroxypropylcellulose) (HPC) 106 % of control | dose: 3.12 mg/kg/injection, schedule: Q04DX003 (ip), vehicle: Klucel (hydroxypropylcellulose) (HPC) 105 % of control | dose: 6.25 mg/kg/injection, schedule: Q01DX009 (ip), vehicle: Klucel (hydroxypropylcellulose) (HPC) 106 % of control | dose: 6.25 mg/kg/injection, schedule: Q04DX003 (ip), vehicle: Klucel (hydroxypropylcellulose) (HPC) 100 % of control | dose: 12.5 mg/kg/injection, schedule: Q01DX009 (ip), vehicle: Klucel (hydroxypropylcellulose) (HPC) 98 % of control | dose: 12.5 mg/kg/injection, schedule: Q04DX003 (ip), vehicle: Klucel (hydroxypropylcellulose) (HPC) 94 % of control and 100 % of control

Cc1ccc(Cl)cc1N1C(=O)CC(Sc2ccccc2N)C1=O (stereo not drawn)
inactive: [8] 90 % of control | [1] 90 % of control | [9] 90 % of control | [2] 95 % of control | [10] 90 % of control | [3] 90 % of control

CCCCNS(=O)(=O)c1ccc(OC)c(N)c1
inactive: [8] 98 % of control | [9] 104 % of control | [10] 97 % of control

O=C1C(c2ccccc2)=C2c3ccccc3-c3ccccc3C2(O)C1c1ccccc1 (stereo not drawn)
inactive: [4] 98 % of control | [5] 103 % of control | [6] 98 % of control

O=C(C1C2C=CC(C2)C1C(=O)N1CCOCC1)N1CCOCC1 (stereo not drawn)
inactive: [7] 107 % of control | dose: 200.0 mg/kg/injection, schedule: Q04DX003 (ip), vehicle: saline with Tween-80 102 % of control | dose: 400.0 mg/kg/injection, schedule: Q04DX003 (ip), vehicle: saline with Tween-80 107 % of control

CCCCN=C=S
inactive: dose: 100.0 mg/kg/injection, schedule: Q04DX002 (ip), vehicle: saline with Tween-80 104 % of control | dose: 200.0 mg/kg/injection, schedule: Q04DX002 (ip), vehicle: saline with Tween-80 91 % of control

Cc1cccc[n+]1Cc1cc(=O)[nH]c(=O)[nH]1
inactive: [11] 101 % of control | [12] 98 % of control | [13] 98 % of control

CCCCNCCCC(C(=O)O)c1ccccc1 (stereo not drawn)
inactive: dose: 75.0 mg/kg/injection, schedule: Q01DX001 (ip), vehicle: carboxymethylcellulose (CMC) 100 % of control | dose: 150.0 mg/kg/injection, schedule: Q01DX001 (ip), vehicle: carboxymethylcellulose (CMC) 90 % of control | dose: 300.0 mg/kg/injection, schedule: Q01DX001 (ip), vehicle: carboxymethylcellulose (CMC) 90 % of control

[NH-]C(Cc1ccccc1)C(=O)O.[NH-]C(Cc1ccccc1)C(=O)O.[Ni+2] (stereo not drawn)
inactive: dose: 12.5 mg/kg/injection, schedule: Q04DX003 (ip), vehicle: saline 95 % of control | dose: 25.0 mg/kg/injection, schedule: Q04DX003 (ip), vehicle: saline 95 % of control | dose: 50.0 mg/kg/injection, schedule: Q04DX003 (ip), vehicle: saline 98 % of control

OCC1OC(n2ncc3c(=S)nc[nH]c32)C(O)C1O (stereo not drawn)
inactive: dose: 12.5 mg/kg/injection, schedule: Q01DX005 (ip), vehicle: other 103 % of control | dose: 25.0 mg/kg/injection, schedule: Q01DX005 (ip), vehicle: other 95 % of control | dose: 50.0 mg/kg/injection, schedule: Q01DX005 (ip), vehicle: other 97 % of control | dose: 100.0 mg/kg/injection, schedule: Q01DX005 (ip), vehicle: other 98 % of control | dose: 200.0 mg/kg/injection, schedule: Q01DX005 (ip), vehicle: other 98 % of control

CC(C)C(N)C(=O)NCC(=O)NCC(=O)O (stereo not drawn) (H-[ξV]-Gly-Gly-OH)
inactive: dose: 100.0 mg/kg/injection, schedule: Q01DX009 (ip), vehicle: saline 98 % of control | [11] 102 % of control | dose: 200.0 mg/kg/injection, schedule: Q01DX009 (ip), vehicle: saline 96 % of control | [12] 94 % of control | dose: 400.0 mg/kg/injection, schedule: Q01DX009 (ip), vehicle: saline 98 % of control | [13] 100 % of control
